Molecules are shown by their SMILES.

The values that follow come from patent publication US6617313B1, “Glucopyranoside and process of isolation thereof from pterocarpus marsupium pharmaceutical composition containing the same and use thereof” (Council of Scientific and Industrial Research, priority 2002, dated 2003).

The nature of data set [1]: hypoglycaemic / anti-diabetic activity of the isolated compound (no test described). The settings on record: stated without test details.
The test system of another data set is pancreatic beta cells. To be noted: effect due to regeneration of pancreatic beta cells; claim questioned by Kolb et al and Sheehan et al; cited from earlier work.

The melting point is the temperature of the solid-liquid transition. In turn, `O=C1c2ccc(O)c(C3OC(CO)C(O)C(O)C3O)c2OC1(O)Cc1ccc(O)cc1` [formula 1, 2,6-dihydroxy-2-(P-hydroxybenzyl)-3(2H)benzofuran-7-C-β-D-glucopyranoside] registered a melting point of 157 to 158 °C. Besides, the hypoglycaemic activity entry in data set [1] is given as “shows hypoglycaemic activity”. Moreover, the anti-diabetic activity result in data set [1] (listed as 2,6-dihydroxy-2-(P-hydroxybenzyl)-3(2H)benzofuran-7-C-β-D-glucopyranoside) is recorded as “possesses anti-diabetic activity”. The anti-diabetic activity entry in data set [1] (listed as 2,6-dihydroxy-2-(p-hydroxybenzyl)-3(2H)benzofuran-7-C-β-D-glucopyranoside) is on record as “antidiabetic activity”.
In the case of `Oc1cc(O)c2c(c1)O[C@H](c1ccc(O)c(O)c1)[C@H](O)C2` [(−)-epicatechin], the hypoglycemic principle result with pancreatic beta cells is “active hypoglycemic principle”.
